From BigSolDB 2.1

CC(C)(C)[C@H](O)[C@H](Cc1ccc(Cl)cc1)n1cncn1 (racemic)
solubility (mole fraction)
Details	in 1,4-dioxane	in acetone	in acetonitrile	in ethanol	in ethyl acetate	in isopropanol	in n-butanol	in n-propanol	in toluene
278.15 K	0.0156	0.0135	0.00239	0.00749	0.00783	0.00707	0.0134	0.0124	0.0416
280.65 K	0.0168	0.0145	0.00267	0.0081	0.00895	0.00766	0.0141	0.0131	0.0426
283.15 K	0.0183	0.0155	0.00295	0.00885	0.0104	0.00835	0.0151	0.0139	0.0437
285.65 K	0.0203	0.0167	0.00331	0.00979	0.0118	0.00912	0.0162	0.0146	0.045
288.15 K	0.0223	0.0181	0.00366	0.0107	0.0133	0.00985	0.0173	0.0155	0.0462
290.65 K	0.0248	0.0194	0.00405	0.0117	0.0153	0.0108	0.0184	0.0163	0.0473
293.15 K	0.0271	0.0209	0.00449	0.0128	0.0175	0.0117	0.0198	0.0172	0.0484
295.65 K	0.0296	0.0223	0.00495	0.0138	0.0201	0.0127	0.0211	0.0182	0.0496
298.15 K	0.0324	0.0239	0.00544	0.0149	0.0228	0.0138	0.0224	0.0192	0.0508
300.65 K	0.0351	0.0253	0.00596	0.016	0.0255	0.0149	0.0238	0.0203	0.0521
303.15 K	0.0381	0.0269	0.00653	0.0173	0.029	0.0161	0.0251	0.0215	0.0533
305.65 K	0.0412	0.0284	0.00709	0.0185	0.0324	0.0173	0.0266	0.0228	0.0546
308.15 K	0.044	0.0301	0.00776	0.02	0.0359	0.0185	0.0279	0.0241	0.0557
310.65 K	0.0475	0.0317	0.00846	0.0214	0.0395	0.0197	0.0295	0.0253	0.057
313.15 K	0.0512	0.0335	0.00916	0.0229	0.0444	0.021	0.0308	0.0265	0.0584
315.65 K	0.0551	0.0353	0.01	0.0246	0.0497	0.0225	0.0324	0.0278	0.0597
318.15 K	0.0593	0.0372	0.011	0.0265	0.0552	0.0242	0.0341	0.0291	0.061
